# Active and inactive are the calls of the source. The rule behind the calls is not given here.
# Columns and labels:
# [1] = Kinetic solubility of the compound at pH 7.4; details: buffer
# [2] = biological target: T1, MAP kinase-activated protein kinase 2 (Homo sapiens, UniProt P49137); test: Inhibition of MK2-mediated HSP27 phosphorylation at Ser78 in LPS-stimulated human THP-1 cells pre-incubated for 60 mins before LPS treatment measured after 60 mins; format: cell-based
# Target sequence in this assay (P49137 whole entry): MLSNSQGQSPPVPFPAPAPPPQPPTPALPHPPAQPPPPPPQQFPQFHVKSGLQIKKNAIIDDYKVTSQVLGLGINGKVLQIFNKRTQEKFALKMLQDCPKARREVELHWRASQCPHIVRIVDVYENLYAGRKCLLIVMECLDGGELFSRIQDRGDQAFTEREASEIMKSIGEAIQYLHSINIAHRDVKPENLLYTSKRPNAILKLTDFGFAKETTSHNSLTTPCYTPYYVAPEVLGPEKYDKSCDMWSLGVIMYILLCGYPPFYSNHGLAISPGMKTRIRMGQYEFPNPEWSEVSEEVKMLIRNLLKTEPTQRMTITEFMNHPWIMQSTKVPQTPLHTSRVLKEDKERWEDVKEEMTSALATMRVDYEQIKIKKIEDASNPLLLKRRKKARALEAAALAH
# [3] = biological target: T1, MAP kinase-activated protein kinase 2; test: Inhibition of MK2 using TAMRA-labeled peptide as substrate pre-incubated for 30 mins prior substrate addition measured after 30 mins incubation in dark using fluorescence polarization assay
# Target sequence in this assay (P49137 whole entry): as above
# [4] = biological target: T1, MAP kinase-activated protein kinase 2; test: Noncompetitive inhibition of MK2 using TAMRA-labeled peptide as substrate
# Target sequence in this assay (P49137 whole entry, looked up): as the sequence (P49137 whole entry) above
solubility kinetic [1] [µM],EC50 [2] [nM],IC50 [3] [nM],inhibition [4],SMILES
> 200,,,,O=C(c1ccc(-c2ccc(Cl)cc2)o1)N(Cc1ccccn1)c1ccc(N2CCNCC2)cc1
< 16,260,2.9,,N#Cc1ccc(-c2cc3c(o2)-c2nccn2-c2ccc(N4CCNCC4)cc2C3)cc1
16,260,3.8,Active,N#Cc1ccc(-c2cc3c(o2)-c2nncn2-c2ccc(N4CCNCC4)cc2C3)cc1
,2500,9.2,,Cc1cnc2n1-c1ccc(N3CCNCC3)cc1Cc1cc(-c3ccc(Cl)cc3)oc1-2
10,,880,,Cc1nnc2n1-c1ccc(N3CCNCC3)cc1Cc1cc(-c3ccc(Cl)cc3)oc1-2
20,1500,7,,Clc1ccc(-c2cc3c(o2)-c2nccn2-c2ccc(N4CCNCC4)cc2C3)cc1
,,110,,O=C1Nc2ccc(N3CCNCC3)cc2OCc2cc(-c3ccc(Cl)cc3)oc21
10,2100,9.3,,Clc1ccc(-c2cc3c(o2)-c2nncn2-c2ccc(N4CCNCC4)cc2C3)cc1
38,,18,Active,Clc1ccc(-c2cc3c(o2)-c2nccn2-c2ccc(N4CCNCC4)cc2OC3)cc1
33,,15,,Fc1ccc(-c2cc3c(o2)-c2nncn2-c2ccc(N4CCNCC4)cc2C3)cc1

# Reference: ChEMBL document CHEMBL1938289, “Facile synthesis of tetracyclic azepine and oxazocine derivatives and their potential as MAPKAP-K2 (MK2) inhibitors” (Bioorg Med Chem Lett, 2012)
